In patent US11932601B2, “Immunoregulatory agents” (FLEXUS BIOSCIENCES, INC., priority 2014, dated 2024):
pIC50: −log10 of the molar value.

These compounds were tested against T1, human IDO1 (Homo sapiens, UniProt P14902) (assay: HEK293 cells stably expressing human IDO1, IDO inhibition assay (kynurenine, Ehrlich reagent, absorbance 490 nm)). Conditions: 20 hours incubation, 500 nM reference standard = 100% inhibition, read-out: HEK Human IDO-1 Biological Activity (IC50).
T1 construct: expressed in transfected cells
Format: cell-based
Procedure: HEK293 cells were transfected with a pCDNA-based mammalian expression vector harboring human IDO1 cDNA (NM 002164.2) by electroporation. They were cultured in medium (DMEM with 10% FBS) containing 1 mg/ml G418 for two weeks. Clones of HEK293 cells that stably expressed human IDO1 protein were selected and expanded for IDO inhibition assay.
The human IDO1/HEK293 cells were seeded at 10,000 cells per 50 μL per well with RPMI/phenol red free media contains 10% FBS in a 384-well black wall clear bottom tissue culture plate (Matrix Technologies LLC) 100 nL of certain concentration of compound was then added to each well using ECHO liquid handling systems. The cells were incubated for 20 hours in 37° C. incubator with 5% CO2.
The compound treatments were stopped by adding Trichloroacetic Acid (Sigma-Aldrich) to a final concentration at 0.2%. The cell plate was further incubated at 50° C. for 30 minute. The equal volume supernatant […] and 0.2% (w/v) Ehrlich reagent (4-dimethylaminobenzaldehyde, Sigma-Aldrich) in glacial acetic acid were mixed in a new clear bottom 384-well plate. This plate was then incubated at room temperature for 30 minute. The absorbance at 490 nm was measured on Envision plate reader.

T1 sequence (P14902 whole entry): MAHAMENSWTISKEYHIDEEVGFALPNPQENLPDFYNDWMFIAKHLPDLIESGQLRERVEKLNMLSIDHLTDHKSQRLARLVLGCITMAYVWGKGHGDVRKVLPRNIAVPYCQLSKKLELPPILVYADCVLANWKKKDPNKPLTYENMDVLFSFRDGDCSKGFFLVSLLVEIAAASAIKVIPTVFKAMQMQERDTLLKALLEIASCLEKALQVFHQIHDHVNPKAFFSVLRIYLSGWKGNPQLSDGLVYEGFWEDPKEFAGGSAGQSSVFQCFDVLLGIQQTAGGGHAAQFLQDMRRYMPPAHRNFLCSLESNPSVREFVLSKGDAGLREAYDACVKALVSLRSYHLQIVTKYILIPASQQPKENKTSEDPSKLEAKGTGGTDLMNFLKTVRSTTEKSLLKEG

Row | SMILES | pIC50
1 | CC(C(=O)Nc1ccc(Cl)cc1)C1CCC(c2cccc(-c3ccccc3)c2)CC1 (single isomer, unassigned) [Example 317c, 2-(4-([1,1′-biphenyl]-3-yl)cyclohexyl)-N-(4-chlorophenyl) propanamide] | < 6.60
2 | CC(C(=O)Nc1ccc(Cl)cc1)C1CCC(c2ccncc2F)CC1 (single isomer, unassigned) [Example 318e, N-(4-chlorophenyl)-2-(4-(3-fluoropyridin-4-yl)cyclohexyl) propanamide] | > 7.30
3 | Cc1nccc(C2CCC(C(C)C(=O)Nc3ccc(Cl)cc3)CC2)n1 (stereo not shown) [Example 319b, N-(4-chlorophenyl)-2-(4-(2-methylpyrimidin-4-yl)cyclohexyl) propanamide] | < 6.60
4 | C[C@H](C(=O)Nc1ccc(Cl)cc1)[C@H]1CC[C@H](Oc2ccnc(C(F)(F)F)c2)CC1 (single isomer, unassigned) [Example 324a] | > 6.60
5 | Cc1cc(C2CCC(C(C)C(=O)Nc3ccc(Cl)cc3)CC2)ccn1 (single isomer, unassigned) [Example 309b, N-(4-chlorophenyl)-2-(4-(2-methylpyridin-4-yl)cyclohexyl) propanamide] | > 7.30
6 | CC(C(=O)Nc1ccc(Cl)cc1)C1CCC(c2ccnnc2)CC1 (single isomer, unassigned) [Example 316b, N-(4-chlorophenyl)-2-(4-(pyridazin-4-yl)cyclohexyl) propanamide] | < 6.60
7 | Cc1cc(C2CCC(C(C)C(=O)Nc3ccc(Cl)cc3)CC2)ccn1 (single isomer, unassigned) [Example 309d, N-(4-chlorophenyl)-2-(4-(2-methylpyridin-4-yl)cyclohexyl) propanamide] | > 7.30
8 | CC(=O)Nc1cc(C2CCC(C(C)C(=O)Nc3ccc(Cl)cc3)CC2)ccn1 (single isomer, unassigned) [Example 315a, 2-(4-(2-acetamidopyridin-4-yl)cyclohexyl)-N-(4-chlorophenyl) propanamide] | > 6.60
9 | CCC(C(=O)Nc1ccc(Cl)cc1)[C@H]1CC[C@@H](Oc2ccncc2)CC1 (single isomer, unassigned) [Example 306b, N-(4-Chlorophenyl)-2-(cis-4-(pyridin-4-yloxy)cyclohexyl)butanamide] | < 6.60
10 | Cc1cnccc1C1CCC(C(C)C(=O)Nc2ccc(Cl)cc2)CC1 (single isomer, unassigned) [Example 313f, N-(4-chlorophenyl)-2-(4-(3-methylpyridin-4-yl)cyclohexyl) propanamide] | > 7.30
11 | CC(C(=O)Nc1ccc(Cl)cc1)C1CCC(c2ccnc(C(F)(F)F)c2)CC1 (single isomer, unassigned) [Example 312d, N-(4-chlorophenyl)-2-(4-(2-(trifluoromethyl)pyridin-4-yl)cyclohexyl) propanamide] | > 6.60
12 | Cc1c(C2CCC(C(C)C(=O)Nc3ccc(Cl)cc3)CC2)ccnc1F (single isomer, unassigned) [Example 310e, N-(4-chlorophenyl)-2-(4-(2-fluoro-3-methylpyridin-4-yl)cyclohexyl) propanamide] | > 7.30
13 | CC(C(=O)Nc1ccc(Cl)cc1)C1CCC(c2cc(-c3ccc(F)cc3)ncn2)CC1 (stereo not shown) [Example 314a, N-(4-chlorophenyl)-2-(4-(6-(4-fluorophenyl)pyrimidin-4-yl)cyclohexyl) propanamide] | > 6.60
14 | Cc1nccc(C2CCC(C(C)C(=O)Nc3ccc(Cl)cc3)CC2)n1 (stereo not shown) [Example 319a, N-(4-chlorophenyl)-2-(4-(2-methylpyrimidin-4-yl)cyclohexyl) propanamide] | > 6.60
15 | CC(C(=O)Nc1ccc(Cl)cc1)C1CCC(c2cccc(-c3ccccc3)c2)CC1 (single isomer, unassigned) [Example 317b, 2-(4-([1,1′-biphenyl]-3-yl)cyclohexyl)-N-(4-chlorophenyl) propanamide] | > 7.30
16 | CC1(CC(=O)NC2(C)CCCCC2)CCN(c2ccnc(C(F)(F)F)c2)CC1 [Example 322, 2-(4-Methyl-1-(2-(trifluoromethyl)pyridin-4-yl)piperidin-4-yl)-N-(1-methylcyclohexyl)acetamide] | < 6.60
17 | COc1cc(C2CCC(C(C)C(=O)Nc3ccc(Cl)cc3)CC2)ccn1 (stereo not drawn) [Example 307b, Cis- or trans-N-(4-Chlorophenyl)-2-(4-(2-methoxypyridin-4-yl)cyclohexyl)propanamide] | > 7.30
18 | Cc1cnccc1C1CCC(C(C)C(=O)Nc2ccc(Cl)cc2)CC1 (single isomer, unassigned) [Example 313a, N-(4-chlorophenyl)-2-(4-(3-methylpyridin-4-yl)cyclohexyl) propanamide] | > 7.30
19 | Cc1nccc(C2CCC(C(C)C(=O)Nc3ccc(Cl)cc3)CC2)c1C (single isomer, unassigned) [Example 311b, N-(4-chlorophenyl)-2-(4-(2,3-dimethylpyridin-4-yl)cyclohexyl) propanamide] | > 7.30
20 | Cc1nccc(C2CCC(C(C)C(=O)Nc3ccc(Cl)cc3)CC2)c1C (single isomer, unassigned) [Example 311a, N-(4-chlorophenyl)-2-(4-(2,3-dimethylpyridin-4-yl)cyclohexyl) propanamide] | > 7.30
21 | Cc1c(C2CCC(C(C)C(=O)Nc3ccc(Cl)cc3)CC2)ccnc1F (single isomer, unassigned) [Example 310a, (+/−)N-(4-chlorophenyl)-2-(4-(2-fluoro-3-methylpyridin-4-yl)cyclohexyl) propanamide] | > 7.30
22 | Cc1nccc(C2CCC(C(C)C(=O)Nc3ccc(Cl)cc3)CC2)c1C (single isomer, unassigned) [Example 311c, N-(4-chlorophenyl)-2-(4-(2,3-dimethylpyridin-4-yl)cyclohexyl) propanamide] | < 6.60
23 | C[C@@H](C(=O)Nc1ccc(Cl)cc1)[C@H]1CC[C@H](Oc2ccnc(C(F)(F)F)c2)CC1 (single isomer, unassigned) [Example 324b] | < 6.60
24 | CC(C(=O)Nc1ccc(Cl)cc1)[C@H]1CC[C@H](Oc2ccnc(C(F)(F)F)c2)CC1 (mixture of isomers) [Example 323, (+/−)-N-(4-chlorophenyl)-2-(trans-4-((2-(trifluoromethyl)pyridin-4-yl)oxy)cyclohexyl) propanamide] | > 7.30
25 | COc1cc(C2CCC(C(C)C(=O)Nc3ccc(Cl)cc3)CC2)ccn1 (stereo not drawn) [Example 307a, Cis- or trans-N-(4-Chlorophenyl)-2-(4-(2-methoxypyridin-4-yl)cyclohexyl)propanamide] | > 7.30
26 | CCC(C(=O)Nc1ccc(Cl)cc1)[C@H]1CC[C@H](Oc2ccncc2C(F)(F)F)CC1 (mixture of isomers) [Example 305, N-(4-Chlorophenyl)-2-(trans-4-((3-(trifluoromethyl)pyridin-4-yl)oxy)cyclohexyl)butanamide] | < 6.60
27 | Cc1cnccc1C1CCC(C(C)C(=O)Nc2ccc(Cl)cc2)CC1 (single isomer, unassigned) [Example 313d, N-(4-chlorophenyl)-2-(4-(3-methylpyridin-4-yl)cyclohexyl) propanamide] | > 7.30
28 | Cc1c(C2CCC(C(C)C(=O)Nc3ccc(Cl)cc3)CC2)ccnc1F (single isomer, unassigned) [Example 310c, N-(4-chlorophenyl)-2-(4-(2-fluoro-3-methylpyridin-4-yl)cyclohexyl) propanamide] | > 7.30
